Test results: patent US20260345584A1, “METHODS AND PHARMACEUTICAL COMPOSITIONS FOR TREATING CHEMOTHERAPY-INDUCED PERIPHERAL NEUROPATHY WITH EG5 INHIBITORS” (UNIVERSITY OF MIAMI, priority 2023, published 2026)

How the values were obtained:
[1] = test system: Eg5; experiment: Eg5 / phospho-Eg5 staining in mouse skin; type: in vivo; conditions: single injection, 20 mg/kg; basal and suprabasal keratinocytes
Procedure: (§1) The mice in each cage were randomly allocated to different treatment groups. Food and water were available ad libitum and experiments were performed during the light cycle (7:00 am to 7:00 pm). Animals were euthanized via CO2 asphyxiation, followed by cervical dislocation. […] The animal's husbandry conformed with established NIH and Institutional Animal Care and Use Committee (IACUC) approved protocols.
(§2) Paws and back skin were collected at predetermined time points, placed in 10% formalin, and stored overnight at 4 °C. Samples were embedded in paraffin and sectioned at 7 μm, deparaffinized, washed with PBS, and incubated at room temperature for 5 min in 0.1% Triton X-100 in PBS and then blocked for 30 min (5% BSA). Sections were incubated with primary antibody diluted in blocking solution, overnight at 4 °C in a humidity chamber. Following PBS washes, sections were incubated for 1 h at room temperature with a secondary antibody. Tissues were mounted and assessed for staining. Antibodies used were against detyrosinated tubulin Millipore AB3201, p-KIF11 Invitrogen PA5-38647, alpha-tubulin Proteintech 66031-1-Ig, mouse Alexa Fluor 488 Invitrogen A21202, and rabbit Alexa flour 546 Invitrogen A10040. DAPI was used for nuclei counterstaining. […]

[2] = test system: Tau-Bfp2 microtubules in keratinocytes; experiment: Tau-Bfp2-stabilized microtubules in keratinocytes; type: in vivo, zebrafish; conditions: 96 hr
Procedure: Fish were anesthetized in 2-phenoxyethanol (1:1000) in Ringer's solution prior to imaging and mounted in 1.2% agarose. EB3-GFP and Tau-Bfp2 were imaged with a scan speed kept at the maximum level in single slice mode with […] for a total of 60s to capture microtubule dynamics. h2a:H2A-GFP time-lapse recordings were produced (Zeiss LSM880 AiryScan confocal microscope) with 1 μm sections recorded every 10 min for 12 hr using 800×800 pixels. All other live fish were imaged using 1024×1024 pixels.
Microtubule analyses was performed in Imaris 9.5.1 (Bitplane) by measuring the straightness of filaments (microtubules) using the “Filaments—Dendrite Straightness” tool, which was defined as the ratio between […] between two branch points (h). The value was always smaller than 1 since the Dendrite Straightness of 1 defines straight objects.
EB3-GFP tracking was done in Fiji using the MTrackJ plugin to trace microtubules over time and create Kymographs, measure the velocity, track length, and comet duration. Tracking was also performed using the Spots and Surface tools in Imaris. Settings were initially automatically detected to fit the fluorescence and subsequently modified manually for improved fit. Settings were maintained between treatment groups.
Tau therefore seems to prevent paclitaxel-induced dfMT formation.
Thus EB3-GFP plus-ends appeared in part to grow along pre-existing stable microtubules, which could be a means to maintain cellular organization.

[3] = test system: skin gene expression; experiment: Human skin RNAseq of paclitaxel-treated CIPN patients; type: in vivo
Procedure: Neurological history, examination, and QLQ-CIPN20 quality of life questionnaire, which has been validated to detect the presence of CIPN (Postma et al., 2005, Eur J Cancer 41: 1135-1139), was completed in all subjects. Consent was given to obtain two skin punch biopsies of approximately 4 mm diameter. These were collected 10 cm proximal to the lateral malleolus on the distal leg as described previously (Engelstad et al., 2012, Neurology 79: 2187-2193). The biopsies were carried out under anesthesia following local injection of 2% lidocaine with epinephrine, using a sterile technique. In addition, three healthy volunteers of similar age and same gender (female) were recruited as controls. […] Sequence reads were trimmed to remove possible adapter sequences and nucleotides with poor quality using Trimmomatic v.0.36. The trimmed reads were mapped to the Homo sapiens GRCh38 reference genome available on ENSEMBL using the STAR aligner v.2.5.2b. The STAR aligner was a splice aligner that detects splice junctions and incorporates them to help align the entire read sequences. […] Unique gene hit counts were calculated by using featureCounts from the Subread package v.1.5.2. […] Only unique reads that fell within exon regions were counted. If a strand-specific library preparation was performed, the reads were strand-specifically counted. […]

[4] = test system: suprabasal keratinocytes; experiment: dfMT formation in mouse epidermis; type: in vivo; conditions: single injection 20 mg/kg
Procedure: as §1, §2

Structure (SMILES): CC(=O)O[C@H]1C(=O)[C@@]2(C)[C@H]([C@H](OC(=O)c3ccccc3)[C@]3(O)C[C@H](OC(=O)[C@H](O)[C@@H](NC(=O)c4ccccc4)c4ccccc4)C(C)=C1C3(C)C)[C@]1(OC(C)=O)CO[C@@H]1C[C@@H]2O [paclitaxel]
- total and phospho-Eg5 levels [1]: increased total and phospho-Eg5 levels
- EB3-GFP puncta co-localized with Tau-Bfp2 ([2]; Tau-Bfp2 + 22 μM paclitaxel): 91.26±1.64%
- velocity of EB3-GFP plus-ends ([2]; Tau-Bfp2 + paclitaxel): 0.184±0.003 μm/s
- microtubule straightness (1=straight, 0=curved) ([2]; strong Tau-Bfp2 + paclitaxel): 0.98±0.002
- KIF11 expression ([3]; CIPN patients after paclitaxel vs controls): upregulated in all three patients
- NOX1 and CYBB expression ([3]; CIPN patients after paclitaxel vs healthy controls): most highly upregulated genes
- dfMT formation in mouse epidermis [4]: resulted in dfMT formation in a subset of suprabasal keratinocytes
